Reference: US8349368B2, “Compositions and methods for treating vaginal infections and pathogenic vaginal biofilms” (priority 2007, dated 2013)
Converted amounts (≈) assume the structure as drawn. “Also recorded” adds a separate entry of the source. Each block holds one molecule with its values, some of them ahead of it.

Key:
[1] = including vaginal secretions and tissues; oral dosing, maximum daily dose 400 mg; cited from earlier work
[2] = system: G. vaginalis; test: planktonic MIC, standard MIC methodologies; format: cell-based, G. vaginalis ATCC #14018; details: Gardnerella vaginalis
Procedure: (§1) As a prelude to the biofilm experiments, the planktonic (i.e., free-floating vs. biofilm-associated) MIC values for boric acid and EDTA against both test organisms were established utilizing standard MIC methodologies. In contrast to C. albicans, the planktonic MIC values for boric acid and EDTA against G. vaginalis had not previously been reported.
(§2) In preparation of the biofilm experiments relating to the invention, overnight cultures of C. albicans and G. vaginalis were prepared by adding 1 mL frozen stock to 9 mL growth media (either G. vaginalis ATCC #14018 in 50% BHI broth+1% starch, or C. albicans ATCC #96113 in 50% SD broth+1% sucrose) and incubated for 24 hours at 37° C., C. albicans was grown under atmospheric conditions while G. vaginalis was grown with the addition of 5% CO2.
(§3) Next, the 24 biofilm-covered coupons were aseptically removed from the CDC reactor and placed in a 24-well plate, with each well containing 2 mL of test solution. The test solutions were run in triplicate and included varied concentrations of boric acid (BA) and EDTA or a combination thereof. […] Fluconazole at a concentration of 8 μg/mL was selected as the treatment control for C. albicans.

[3] = system: G. vaginalis isolates; details: conventional planktonic MIC testing; cited from earlier work
[4] = system: G. vaginalis biofilm; test: biofilm disruption in CDC biofilm reactor; format: cell-based, G. vaginalis ATCC #14018; details: metronidazole 192 μg/mL, 24-hour treatment
Procedure: as §1, §2, §3

[5] = system: BV biofilm; details: oral 500 mg twice daily for 7 days, cited from earlier work
[6] = system: recurrent BV
Procedure: A retrospective case review was conducted of the use of boric acid in a series of patients with recurrent BV. Boric acid was employed as an antimicrobial agent as part of a 6-month sequential treatment protocol.
With the exception of boric acid, all of the other antimicrobials used were FDA approved for BV. The 6-month protocol was as follows: • 1. Induction: oral metronidazole or tinidazole twice daily for 7-10 days • 2. Boric acid treatment: 600-mg gelatin capsule inserted vaginally daily for 21 days • 3.

[7] = system: C. albicans; test: planktonic MIC, standard MIC methodologies; details: Candida albicans, read-out: planktonic MIC
[8] = system: clinical isolates of C. albicans as well as non-albicans species; details: literature (Shubair 1990; Prutting 1998); cited from earlier work
[9] = system: common bacterial pathogens; details: literature (Meers 1990); cited from earlier work

Compound: OC(Cn1cncn1)(Cn1cncn1)c1ccc(F)cc1F [fluconazole, Fluconazole]
drug levels achieved in biologic fluids and tissues [1]: 4.12-8.08 μg/mL

MIC [2]: 128 µg/mL
Compound: Cc1ncc([N+](=O)[O-])n1CCO [metronidazole]
susceptibility of G. vaginalis isolates [3]: good susceptibility
effect of active control on G. vaginalis biofilm [4]: little impact; also recorded: minimal impact
vaginal biopsy result (fluorescent in situ hybridization) ([5]; G. vaginalis and Atopobium): persistent accumulation of core pathogenic bacteria
clinical response by standard clinical and microbiologic methods ([5]; each time point): resolution of BV

Compound: OB(O)O [boric acid]
treatment failures during boric acid therapy ([6]; 600-mg vaginal capsule daily for 21 days): none of the treatment failures occurred during boric acid therapy
patients remaining cured ([6]; at 9 months (3 months after maintenance)): Sixty-seven
patients clinically cured (asymptomatic and negative for Amsel's criteria) ([6]; end of 6 months, nitroimidazole induction, boric acid 600 mg vaginally daily 21 days, metronidazole gel maintenance, 24/31): 77%
secondary yeast infection or discontinuation because of adverse event or intolerance ([6]; in vivo): none of the patients experienced a secondary yeast infection or discontinued
median duration of remission ([6]; retrospective case series): 8.7 months
MIC [7]: 1560 µg/mL (≈ 25.2 mM)
MIC [2]: 3120 µg/mL
antifungal activity in vitro [8]: weakly fungistatic
antibacterial activity in vitro [9]: bacteriostatic activity

MIC [7]: 780 µg/mL (≈ 2.67 mM)
MIC [2]: 190 µg/mL
Compound: O=C(O)CN(CCN(CC(=O)O)CC(=O)O)CC(=O)O [EDTA, ethylene-diamine-tetra-acetic acid]
